Experimental data as given in patent US8618119B2, “Fused cyanopyridines and the use thereof” (Bayer Intellectual Property GmbH, priority 2007, dated 2013).

Assays:
Format in all cases: cell-based
[1] = target: T1, adenosine A2b receptor (Homo sapiens, UniProt P29275); assay: Indirect determination of adenosine agonism by way of gene expression (luciferase reporter), A2b cells; settings: CHO cells stably transfected with A2b receptor cDNA; 50% of maximum stimulation
T1 construct: expressed in transfected cells; host or cells: CHO (Chinese Hamster Ovary)
T1 sequence (P29275 1-332): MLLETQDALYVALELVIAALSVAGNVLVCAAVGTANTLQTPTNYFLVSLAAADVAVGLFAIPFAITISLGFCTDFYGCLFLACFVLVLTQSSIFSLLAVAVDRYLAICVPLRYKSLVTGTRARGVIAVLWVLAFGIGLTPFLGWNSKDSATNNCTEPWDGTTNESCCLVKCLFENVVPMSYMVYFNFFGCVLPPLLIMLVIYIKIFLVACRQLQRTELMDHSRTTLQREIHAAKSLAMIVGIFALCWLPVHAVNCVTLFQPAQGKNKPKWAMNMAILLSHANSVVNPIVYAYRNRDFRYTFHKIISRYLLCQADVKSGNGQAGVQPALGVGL
Source text: (§1) B-1. Indirect Determination of the Adenosine Agonism by Way of Gene Expression
(§2) Cells of the CHO (Chinese Hamster Ovary) permanent line are transfected stably with the cDNA for the adenosine receptor subtypes A1, A2a and A2b. The adenosine A1 receptors are coupled to the adenylate cyclase by way of Gi proteins, while the adenosine A2a and A2b receptors are coupled by way of Gs proteins. In correspondence with this, the formation of cAMP in the cell is inhibited or stimulated, respectively. After that, expression of the luciferase is modulated by way of a cAMP-dependent promoter. The luciferase test is optimized, with the aim of high sensitivity and reproducibility, low variance and good suitability for implementation on a robot system, by varying several test parameters, such as cell density, duration of the growth phase and the test incubation, forskolin concentration and medium composition. The following test protocol is used for pharmacologically characterizing cells and for the robot-assisted substance screening:
(§3) The stock cultures are grown, at 37° C. and under 5% CO2, in DMEM/F12 medium containing 10% FCS (fetal calf serum) and in each case split 1:10 after 2-3 days. The test cultures are seeded in 384-well plates with 2000 cells per well and grown at 37° C. for approx. 48 hours. The medium is then replaced with a physiological sodium chloride solution (130 mM sodium chloride, 5 mM potassium chloride, 2 mM calcium chloride, 20 mM HEPES, 1 mM magnesium chloride hexahydrate, 5 mM sodium bicarbonate, pH 7.4). The substances to be tested, which are dissolved in DMSO, are pipetted into the test cultures (maximum final concentration of DMSO in the test mixture: 0.5%) in a dilution series of from 5×10^−11M to 3×10^−6M (final concentration). 10 minutes later, forskolin is added to the A1 cells and all the cultures are subsequently incubated at 37° C. for four hours. After that, 35 μl of a solution which is composed of 50% lysis reagent (30 mM disodium hydrogenphosphate, 10% glycerol, 3% TritonX100, 25 mM TrisHCl, 2 mM dithiotreitol (DTT), pH 7.8) and 50% luciferase substrate solution (2.5 mM ATP, 0.5 mM luciferin, 0.1 mM coenzyme A, 10 mM tricine, 1.35 mM magnesium sulfate, 15 mM DTT, pH 7.8) are added to the test cultures, which are shaken for approx. 1 minute and the luciferase activity is measured using a camera system. The EC50 values are determined, i.e., the concentrations at which 50% of the luciferase answer is inhibited in the case of the A1 cell, and, respectively, 50% of the maximum stimulation with the corresponding substance is achieved in the case of the A2b and A2a cells. […] Pharmacol., 357 (1998), 1-9).
(§4) Table 1 below lists the EC50 values of representative working examples for the receptor stimulation on adenosine A1, A2a and A2b receptor subtypes: […]

[2] = target: T2, adenosine A2a receptor (Homo sapiens, UniProt P29274); assay: Indirect determination of adenosine agonism by way of gene expression (luciferase reporter), A2a cells; settings: CHO cells stably transfected with A2a receptor cDNA; 50% of maximum stimulation
T2 construct: expressed in transfected cells; host or cells: CHO (Chinese Hamster Ovary)
T2 sequence (P29274 whole entry): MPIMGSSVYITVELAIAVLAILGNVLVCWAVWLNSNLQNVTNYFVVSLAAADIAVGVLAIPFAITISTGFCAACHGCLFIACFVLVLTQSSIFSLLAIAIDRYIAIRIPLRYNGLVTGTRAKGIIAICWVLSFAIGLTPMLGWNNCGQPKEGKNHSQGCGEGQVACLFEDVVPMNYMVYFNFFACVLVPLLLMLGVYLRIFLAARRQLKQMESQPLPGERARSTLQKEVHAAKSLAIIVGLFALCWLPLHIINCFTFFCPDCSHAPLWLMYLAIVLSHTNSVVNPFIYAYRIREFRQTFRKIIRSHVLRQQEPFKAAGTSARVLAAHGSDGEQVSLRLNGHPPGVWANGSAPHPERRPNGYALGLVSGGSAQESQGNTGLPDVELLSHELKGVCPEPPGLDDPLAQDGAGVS
Source text: as §1, §2, §3, §4

[3] = target: T3, adenosine A1 receptor (Homo sapiens, UniProt P30542); assay: Indirect determination of adenosine agonism by way of gene expression (luciferase reporter), A1 cells; settings: CHO cells stably transfected with A1 receptor cDNA; 1 μM forskolin; 50% inhibition of luciferase answer
T3 construct: expressed in transfected cells; host or cells: CHO (Chinese Hamster Ovary)
T3 sequence (P30542 1-326): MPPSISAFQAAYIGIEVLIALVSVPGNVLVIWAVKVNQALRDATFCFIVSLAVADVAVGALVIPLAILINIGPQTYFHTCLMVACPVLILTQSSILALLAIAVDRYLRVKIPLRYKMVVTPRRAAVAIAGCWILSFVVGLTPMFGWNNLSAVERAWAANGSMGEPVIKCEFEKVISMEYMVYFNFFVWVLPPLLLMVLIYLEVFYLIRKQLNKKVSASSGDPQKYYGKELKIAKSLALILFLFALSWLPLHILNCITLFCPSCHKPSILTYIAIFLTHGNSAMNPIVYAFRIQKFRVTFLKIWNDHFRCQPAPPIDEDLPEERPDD
Source text: as §1, §2, §3, §4

## N#Cc1c(SCc2csc(-c3ccc(Cl)cc3)n2)nc2c(c1-c1ccc(OCCO)cc1)C(=O)CCC2 [Example 2, 2-({[2-(4-Chlorophenyl)-1,3-thiazol-4-yl]methyl}thio)-4-[4-(2-hydroxyethoxy)phenyl]-5-oxo-5,6,7,8-tetrahydroquinoline-3-carbonitrile]
[1]
  EC50: 207 nM
[2]
  EC50: > 3000 nM
[3]
  EC50: 7.9 nM

## N#Cc1c(SCc2csc(-c3ccc(Cl)cc3)n2)nc2c(c1-c1ccc(OC[C@@H](O)CO)cc1)C(=O)CCC2 [Example 3, 2-({[2-(4-Chlorophenyl)-1,3-thiazol-4-yl]methyl}thio)-4-(4-{[(2S)-2,3-dihydroxypropyl]oxy}-phenyl)-5-oxo-5,6,7,8-tetrahydroquinoline-3-carbonitrile]
[1]
  EC50: 66 nM
[2]
  EC50: > 3000 nM
[3]
  EC50: 2.6 nM

## Cc1nc(N)c2c(-c3ccc(OCCO)cc3)c(C#N)c(SCc3csc(-c4ccc(Cl)cc4)n3)nc2n1 [Example 9, 4-Amino-7-({[2-(4-chlorophenyl)-1,3-thiazol-4-yl]methyl}sulfanyl)-5-[4-(2-hydroxyethoxy)phenyl]-2-methylpyrido[2,3-d]pyrimidine-6-carbonitrile]
[1]
  EC50: 38 nM
[2]
  EC50: 68 nM
[3]
  EC50: < 0.04 nM

## Cc1nc2nc(SCc3csc(-c4ccc(Cl)cc4)n3)c(C#N)c(-c3ccc(OCCO)cc3)c2c(=O)[nH]1 [Example 10, 7-({[2-(4-Chlorophenyl)-1,3-thiazol-4-yl]methyl}thio)-5-[4-(2-hydroxyethoxy)phenyl]-2-methyl-4-oxo-3,4-dihydropyrido[2,3-d]pyrimidine-6-carbonitrile]
[1]
  EC50: 213 nM
[2]
  EC50: 1370 nM
[3]
  EC50: 0.4 nM

## N#Cc1c(SCc2csc(-c3ccc(Cl)cc3)n2)nc2[nH]c(=O)[nH]c(=O)c2c1-c1ccc(OCCO)cc1 [Example 12, 7-({[2-(4-Chlorophenyl)-1,3-thiazol-4-yl]methyl}sulfanyl)-5-[4-(2-hydroxyethoxy)phenyl]-2,4-dioxo-1,2,3,4-tetrahydropyrido[2,3-d]pyrimidine-6-carbonitrile]
[1]
  EC50: 880 nM
[2]
  EC50: 2000 nM
[3]
  EC50: 2 nM

## COC(=O)c1ccc(-c2nc(CSc3nc4c(c(-c5ccccc5)c3C#N)CCC4)cs2)cc1 [Example 13, Methyl 4-(4-{[(3-cyano-4-phenyl-6,7-dihydro-5H-cyclopenta[b]pyridin-2-yl)sulfanyl]methyl}-1,3-thiazol-2-yl)benzoate]
[1]
  EC50: 1250 nM
[3]
  EC50: 21 nM
